Experimental data taken from patent US20250171438A1 (Agios Pharmaceuticals, Inc., priority 2022, published 2025).

Molecular target: T1, human PAH with the R408W mutation (Homo sapiens, UniProt P00439, R408W)
T1 construct: expressed in transfected cells
T1 sequence (P00439 1-452 R408W): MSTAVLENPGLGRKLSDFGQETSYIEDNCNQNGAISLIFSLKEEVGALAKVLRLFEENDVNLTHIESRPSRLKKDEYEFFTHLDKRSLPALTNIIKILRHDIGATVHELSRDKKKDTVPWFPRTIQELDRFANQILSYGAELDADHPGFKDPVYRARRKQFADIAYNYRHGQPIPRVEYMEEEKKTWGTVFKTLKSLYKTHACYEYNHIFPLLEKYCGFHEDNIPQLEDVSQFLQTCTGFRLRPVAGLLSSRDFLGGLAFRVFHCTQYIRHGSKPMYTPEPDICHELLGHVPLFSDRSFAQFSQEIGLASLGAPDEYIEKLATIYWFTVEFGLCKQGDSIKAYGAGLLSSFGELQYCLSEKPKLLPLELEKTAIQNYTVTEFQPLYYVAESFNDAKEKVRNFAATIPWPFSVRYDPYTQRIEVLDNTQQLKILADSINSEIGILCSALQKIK
Assay: Cell Based Phenylalanine Flux Assay
Details: A375 cells expressing human R408W PAH; 24 hrs compound incubation; 13C-Tyrosine by LC-MS; average where tested multiple times; read-out: AC50

Compound	AC50
O=C(c1cnn(CC(F)F)c1Cl)N1CCc2[nH]cnc2[C@H]1c1nc2c(F)cccc2s1 [Example 2017, (S)-(5-chloro-1-(2,2-difluoroethyl)-1H-pyrazol-4-yl)(4-(4-fluorobenzo[d]thiazol-2-yl)-6,7-dihydro-1H-imidazo[4,5-c]pyridin-5(4H)-yl)methanone]	< 0.5 µM
O=C(c1cnn(CC(F)F)c1Cl)N1CCc2[nH]cnc2[C@@H]1c1nc2c(F)cccc2s1 [Example 2018, (R)-(5-chloro-1-(2,2-difluoroethyl)-1H-pyrazol-4-yl)(4-(4-fluorobenzo[d]thiazol-2-yl)-6,7-dihydro-1H-imidazo[4,5-c]pyridin-5(4H)-yl)methanone]	1 to 5 µM
Cc1cccc2sc([C@@H]3c4nc[nH]c4CCN3C(=O)c3ocnc3C#N)nc12 [Example 2019, (S)-5-(4-(4-methylbenzo[d]thiazol-2-yl)-4,5,6,7-tetrahydro-1H-imidazo[4,5-c]pyridine-5-carbonyl)oxazole-4-carbonitrile]	< 0.5 µM
Cc1cccc2sc([C@H]3c4nc[nH]c4CCN3C(=O)c3ocnc3C#N)nc12 [Example 2020, (R)-5-(4-(4-methylbenzo[d]thiazol-2-yl)-4,5,6,7-tetrahydro-1H-imidazo[4,5-c]pyridine-5-carbonyl)oxazole-4-carbonitrile]	> 5 µM
Cc1cccc2sc([C@@H]3c4nc[nH]c4CCN3C(=O)c3ccnn3C)nc12 [Example 2021]	0.5 to 1 µM
CN1CCN(c2nc(C(F)F)c(C(=O)N3CCc4[nH]cnc4[C@H]3c3nc4c(F)cccc4s3)o2)CC1 [Example 2023, (S)-(4-(difluoromethyl)-2-(4-methylpiperazin-1-yl)oxazol-5-yl)(4-(4-fluorobenzo[d]thiazol-2-yl)-6,7-dihydro-1H-imidazo[4,5-c]pyridin-5(4H)-yl)methanone]	< 0.5 µM
CN1CCN(c2nc(C(F)F)c(C(=O)N3CCc4[nH]cnc4[C@@H]3c3nc4c(F)cccc4s3)o2)CC1 [Example 2024, (R)-(4-(difluoromethyl)-2-(4-methylpiperazin-1-yl)oxazol-5-yl)(4-(4-fluorobenzo[d]thiazol-2-yl)-6,7-dihydro-1H-imidazo[4,5-c]pyridin-5(4H)-yl)methanone]	1 to 5 µM
O=C(c1oc(N2CCOCC2)nc1C(F)F)N1CCc2[nH]cnc2[C@H]1c1nc2c(F)cccc2s1 [Example 2025, (S)-(4-(difluoromethyl)-2-morpholinooxazol-5-yl)(4-(4-fluorobenzo[d]thiazol-2-yl)-6,7-dihydro-1H-imidazo[4,5-c]pyridin-5(4H)-yl)methanone]	< 0.5 µM
O=C(c1oc(N2CCOCC2)nc1C(F)F)N1CCc2[nH]cnc2[C@@H]1c1nc2c(F)cccc2s1 [Example 2026, (R)-(4-(difluoromethyl)-2-morpholinooxazol-5-yl)(4-(4-fluorobenzo[d]thiazol-2-yl)-6,7-dihydro-1H-imidazo[4,5-c]pyridin-5(4H)-yl)methanone]	1 to 5 µM
CC(C)(C#N)c1nc(C(F)F)c(C(=O)N2CCc3[nH]cnc3[C@H]2c2nc3c(F)cccc3s2)o1 [Example 2027]	< 0.5 µM
CC(C)(C#N)c1nc(C(F)F)c(C(=O)N2CCc3[nH]cnc3[C@@H]2c2nc3c(F)cccc3s2)o1 [Example 2028, (R)-2-(4-(difluoromethyl)-5-(4-(4-fluorobenzo[d]thiazol-2-yl)-4,5,6,7-tetrahydro-1H-imidazo[4,5-c]pyridine-5-carbonyl)oxazol-2-yl)-2-methylpropanenitrile]	< 0.5 µM
Cc1cccc2sc([C@@H]3c4nc[nH]c4CCN3C(=O)c3cnn(C)c3C(F)F)nc12 [Example 2029, (S)-(5-(difluoromethyl)-1-methyl-1H-pyrazol-4-yl)(4-(4-methylbenzo[d]thiazol-2-yl)-6,7-dihydro-1H-imidazo[4,5-c]pyridin-5(4H)-yl)methanone]	0.5 to 1 µM
CN1CCN(c2nc(Br)c(C(=O)N3CCc4[nH]cnc4[C@H]3c3nc4c(F)cccc4s3)o2)CC1 [Example 2031, (S)-(4-bromo-2-(4-methylpiperazin-1-yl)oxazol-5-yl)(4-(4-fluorobenzo[d]thiazol-2-yl)-6,7-dihydro-1H-imidazo[4,5-c]pyridin-5(4H)-yl)methanone]	< 0.5 µM
CN1CCN(c2nc(Br)c(C(=O)N3CCc4[nH]cnc4[C@@H]3c3nc4c(F)cccc4s3)o2)CC1 [Example 2032, (R)-(4-bromo-2-(4-methylpiperazin-1-yl)oxazol-5-yl)(4-(4-fluorobenzo[d]thiazol-2-yl)-6,7-dihydro-1H-imidazo[4,5-c]pyridin-5(4H)-yl)methanone]	1 to 5 µM
O=C(c1oc(N2CCOCC2)nc1Br)N1CCc2[nH]cnc2[C@H]1c1nc2c(F)cccc2s1 [Example 2033]	< 0.5 µM
O=C(c1oc(N2CCOCC2)nc1Br)N1CCc2[nH]cnc2[C@@H]1c1nc2c(F)cccc2s1 [Example 2034, (R)-(4-bromo-2-morpholinooxazol-5-yl)(4-(4-fluorobenzo[d]thiazol-2-yl)-6,7-dihydro-1H-imidazo[4,5-c]pyridin-5(4H)-yl)methanone]	1 to 5 µM
O=C(c1cn[nH]c1Cl)N1CCc2[nH]cnc2[C@@H]1c1nc2ccccc2s1 [Example 2035, (R)-(4-(benzo[d]thiazol-2-yl)-6,7-dihydro-1H-imidazo[4,5-c]pyridin-5(4H)-yl)(5-chloro-1H-pyrazol-4-yl)methanone]	1 to 5 µM
O=C(c1cn[nH]c1Cl)N1CCc2[nH]cnc2[C@H]1c1nc2ccccc2s1 [Example 2036]	< 0.5 µM
CC(C)n1ncnc1C(=O)N1CCc2[nH]cnc2[C@H]1c1nc2ccccc2s1 [Example 2037]	< 0.5 µM
CC(C)n1ncnc1C(=O)N1CCc2[nH]cnc2[C@H]1c1nc2c(F)cccc2s1 [Example 2039, (S)-(4-(4-fluorobenzo[d]thiazol-2-yl)-6,7-dihydro-1H-imidazo[4,5-c]pyridin-5(4H)-yl)(1-isopropyl-1H-1,2,4-triazol-5-yl)methanone]	< 0.5 µM
CC(C)n1ncnc1C(=O)N1CCc2[nH]cnc2[C@@H]1c1nc2c(F)cccc2s1 [Example 2040, (R)-(4-(4-fluorobenzo[d]thiazol-2-yl)-6,7-dihydro-1H-imidazo[4,5-c]pyridin-5(4H)-yl)(1-isopropyl-1H-1,2,4-triazol-5-yl)methanone]	1 to 5 µM
O=C(c1ocnc1CF)N1CCc2[nH]cnc2[C@H]1c1nc2c(F)cccc2s1 [Example 2041, (S)-(4-(4-fluorobenzo[d]thiazol-2-yl)-6,7-dihydro-1H-imidazo[4,5-c]pyridin-5(4H)-yl)(4-(fluoromethyl)oxazol-5-yl)methanone]	< 0.5 µM
O=C(c1ocnc1CF)N1CCc2[nH]cnc2[C@@H]1c1nc2c(F)cccc2s1 [Example 2042, (R)-(4-(4-fluorobenzo[d]thiazol-2-yl)-6,7-dihydro-1H-imidazo[4,5-c]pyridin-5(4H)-yl)(4-(fluoromethyl)oxazol-5-yl)methanone]	1 to 5 µM
CCn1cnnc1C(=O)N1CCc2[nH]cnc2[C@@H]1c1nc2c(F)cccc2s1 [Example 2043, (R)-(4-ethyl-4H-1,2,4-triazol-3-yl)(4-(4-fluorobenzo[d]thiazol-2-yl)-6,7-dihydro-1H-imidazo[4,5-c]pyridin-5(4H)-yl)methanone]	1 to 5 µM
CCn1cnnc1C(=O)N1CCc2[nH]cnc2[C@H]1c1nc2c(F)cccc2s1 [Example 2044]	0.5 to 1 µM
